The numbers were not newly measured in patent US20070197640A1, “Certain chemical entities, compositions, and methods” (Cytokinetics, Inc., priority 2005, published 2007), which cites them from elsewhere.

As usually defined, the GI50 is the concentration giving 50% growth inhibition.

This series relates to A549 cells. The conditions noted are these: data provided by National Cancer Institute, Developmental Therapeutic Program.
Turning to `O=c1[nH]cc(F)c(=O)[nH]1` [5-fluorouracil], the GI50 was 1000 nM. As for `CC(=O)O[C@H]1C(=O)[C@@]2(C)[C@H]([C@H](OC(=O)c3ccccc3)[C@]3(O)C[C@H](OC(=O)[C@H](O)[C@@H](NC(=O)c4ccccc4)c4ccccc4)C(C)=C1C3(C)C)[C@]1(OC(C)=O)CO[C@@H]1C[C@@H]2O` [paclitaxel], the GI50 was 4 nM.

For `NC(=O)NO` [hydroxyurea], the concentration for 50% growth inhibition (GI50) is 500000 nM. Turning to `COc1cccc2c1C(=O)c1c(O)c3c(c(O)c1C2=O)C[C@@](O)(C(=O)CO)C[C@@H]3O[C@H]1C[C@H](N)[C@H](O)[C@H](C)O1` [doxorubicin], the GI50 was 63 nM.
